The source of these data is PMC8321398, “The discovery of a novel series of compounds with single-dose efficacy against juvenile and adult Schistosoma species” (PLoS Neglected Tropical Diseases, 2021).

By amount remaining is commonly meant the share of the starting amount still present when the sample was taken. By AUC(0-inf) is commonly meant total exposure, with the tail of the curve extrapolated. As a reminder, the bioavailability is dose-corrected exposure relative to a reference, in per cent. A word on the half-life: it is how long it takes for the measured level to halve.

Data set [1] can be described thus: Metabolic stability in mouse hepatocytes. Type of data set: in vitro ADME. Particulars: hepatocytes (suspension); for remaining at 1.5 h, 1 µM: pH 7.4, 90 min incubation, read-out: Mouse hepatocyte % remaining at 90 min. The method, then: 100 μM compound stock solution was prepared from 5 μL of 4 mM stock in DMSO + 195 μL MeCN. Working solution (2 μM compound) was prepared using 10 μL of 100 μM stock + 490 μL buffer pH 7.4 (KHB supplemented with CaCl2, NaHCO3, HEPES, fructose, glycine; pH 7.4).
Working solution (25 μL, 2 μM) was added in duplicate to wells in a 0.5 mL per well, 96 well plate which was preincubated to reach 37°C. Hepatocyte suspension (25 μL) was added to each plate, and the plate incubated (37°C, 95% relative humidity with 5% CO2 supply) under gentle mixing (Thermomixer @300 rpm). After designated time periods, ice-cold MeCN (250 μL) was added with a suitable standard. For T = 0 min, ice-cold MeCN (250 μL) with suitable standard was added to the working solution (2 μM) and hepatocyte suspension (25 μL) added. The plates for each time point were shaken, sonicated for 5 mins and kept at 4°C until the final plate was processed. The plates were centrifuged at 4,000 rpm for 20 min, supernatant (110 μL) was mixed with water (110 μL) and the samples analysed using LC-MS/MS.

Data set [2] is described as follows: Human dose prediction with the PK Tool. The settings on record: PK Tool; predicted plasma conc at 24 h 7 fold above calculated adult worm blood potency. An excerpt:
• We assume that the plasma concentration achieved in mouse sufficient to kill worms is the same as the plasma concentration we need to achieve in humans to see the same effect. A component element is an assumption that the mechanism of S. mansoni worm reduction in mouse and human are the same. • We assume that allometric scaling can be used to estimate human clearance based on mouse clearance. One factor that would make this assumption unsafe is if the clearance mechanisms and rates for our series in mouse and human were different. Fortunately, in vivo clearance correlates well with metabolic stability calculated from in vitro mouse hepatocyte measurements (Fig 7A). In vitro stability estimates in mouse and human hepatocytes are also fairly well correlated (Fig 7B).
Estimates of dose prediction in human were made using the PK Tool. A simple estimate of an effective human dose for LSHTM-3520 can be made by making the assumption that a plasma concentration of 2,000 ng/mL 24 h after oral administration (the same as that achieved in Fig 6B) would give sufficient clinical efficacy. […] To design compounds with a lower predicted human dose we pursued two strategies, one to improve potency by optimisation of the core and substituents, the other to decrease clearance through blocking positions we thought likely to be vulnerable to metabolic enzymes and/or conformational restriction.
Assuming linear kinetics the plasma levels scaled from the low-dose oral PK experiment (2.5 mg/kg) for LSHTM-3520 (8 ng/mL) after 24 h would be 160 ng/mL from […] and 640 ng/mL at […].

The nature of data set [3]: In vivo efficacy, mouse model of juvenile (21-day old) S. mansoni infection. The settings on record: female, CD1, plasma, mouse, Juvenile infection, read-out: Plasma conc @24 h (efficacy experiment). As for the experimental part:
(§1) Prior to in vivo efficacy experiments, a single animal was given a dose of drug (using the same formulation) that was twice as large as that planned for use in the efficacy experiments and was observed periodically for adverse clinical signs for 24h by trained veterinarians. Adverse clinical signs checked include postural defect, vocalization, oculo-nasal discharge, hypersalivation, change in activity, abnormal gait, respiration and pulse, piloerection, loss of pupillary reflex, eyelid reflex, chromodacryorrhea, reaction to handling, tremor, convulsions, prostration, diarrhoea, cachexia, emaciation. […] In vivo efficacy was assessed in female CD1 mice using methods based on those previously described. Mice were infected subcutaneously with 150 cercariae. Test compounds were suspended in 7% Tween-80 / 3% Ethanol / double distilled water and drug dispersal was facilitated by vortexing and using a sonicating water bath (Formulation “Aqueous”). Alternatively, drugs were first dissolved in DMSO, then diluted with corn oil to give a 1:19 DMSO:corn oil solution/suspension of test compound (Formulation “Corn oil”). Dosing was by oral gavage. Mice in the negative control groups were given the drug suspension vehicle only. Positive controls for treatment of adult, day 42 old, infections were treated with PZQ and those for juvenile, day 21 old, infections with artemether, which unlike PZQ is effective against the juvenile worm infections in mice. During and following treatment, mice were closely observed for any ill effects by staff experienced in animal handling. This involved individuals who were blinded to the treatment groups. Effects they were trained to look for included hunching, immobility, piloerection, subdued behaviour, diarrhoea and loss of body condition. None were seen. Worms were recovered by portal perfusion with citrate saline 8–14 days post treatment and counted. Differences between groups relative to the non-drug treated controls were assessed for statistical significance by Student’s unpaired t-test using GraphPad Prism Software. P values are presented as follows:- ns–P > 0.05 (not significant), * P ≤ 0.05, ** P ≤ 0.01, *** P ≤ 0.001, **** P ≤ 0.0001.
(§2) For pharmacokinetic analysis during the in vivo efficacy experiments individual animals were only sampled once. Samples were taken from one animal in each experimental group at each of 1, 4, 8 h and samples from two animals in each group were taken at 24 h.

In data set [4] the test system is S. mansoni juvenile worms. The data set is described as above. The settings on record: for in vivo EC50 against juvenile worms: mouse model, single oral dose (Fig 9C); for clearing juvenile worm infections in vivo: 12.5 mg/kg oral single dose (Fig 9D); for Worms remaining: Juvenile infection; for worm reduction: juvenile worms. The method, then: as §1, §2
The next data set concerns HepG2 cells. The data set is described as follows: Cytotoxicity, HepG2 cells with MTT. Type of data set: cell-based, human. Particulars: Table 2; hepG2 cell line, 72 h incubation. The method, then: Activity against mammalian cells was determined using either of two standard assays. The first of these used MRC-5 cells with Alamar blue staining as previously described. The second used HepG2 cells monitored using 3-(4,5-dimethylthiazol-2-yl)-2,5-diphenyltetrazolium bromide (MTT) as previously described.

The next data set is described as follows: Mouse pharmacokinetics.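 As to all read-outs here: three mice per experiment, dosed in 10% DMSO with 50 mM Na2HPO4 buffer plus Tween-80, plasma levels quantified by LC-MS against a calibration line prepared in blank matrix.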 Type of data set: in vivo. Particulars: for Vd: read-out: Vss; for bioavailability: 2.5 mg/kg oral, calculated values > 100% shown as 100; for half-life: iv.
[5] abbreviates: oral 12.5 mg/kg, formulation corn oil.
Where [6] appears, read: mouse, oral 12.5 mg/kg, formulation corn oil.
Setting [7] is: 0.5 mg/kg iv, in a mixture of 5 compounds.
Where [8] appears, read: male, Swiss albino, plasma, 0.5 mg/kg iv, in a mixture of 5 compounds.
Where [9] appears, read: male, Swiss albino, plasma, mixture of 5 compounds.
[10] abbreviates: male, Swiss albino, plasma, 0.5 mg/kg, 0.5 mg/kg iv, in a mixture of 5 compounds, sampled over 24 h.

Experimental for Mouse pharmacokinetics: Routine pharmacokinetics was carried out as previously described [24] with the following modifications: Swiss albino male mice of average weight 30 g with three animals per experiment. The final vehicle was 10% DMSO, 90% 50 mM Na2HPO4 with 0.5% Tween-80. Compounds were dosed singly (at a variety of doses as noted in the text) or more commonly in mixtures of 5 at 1 mg/kg per compound iv into the lateral tail vein or 2.5 mg/kg per compound by oral gavage. ~30 μl blood samples were taken by venepuncture, into heparinized capillary tubes and subsequently transferred into 0.5 ml micro-centrifuge tubes. Collection time points were 5 min (iv only), 15 min, 30 min, 1 h, 2 h, 4 h, 8 h & 24 h. All blood samples were processed for plasma by centrifugation at 4,000 rpm for 10 min at 4°C within half an hour of collection. Plasma samples were stored at -20°C until bioanalysis.
Prior to LC-MS analysis, all samples were extracted using protein precipitation using acetonitrile as the extraction solvent. For each batch of samples, a calibration line spanning an appropriate concentration range was created by spiking the compound of interest into blank matrix. The calibration line included 10 evenly spaced points. […] Where necessary, additional dilution QCs were included to validate the dilution process. Within each batch at least 3 study samples were assayed pre and post dilution to assess whether there was any impact from the presence of dosing vehicle in the samples. A linear regression was performed on peak area response ratios (analyte:IS) and the results used to back-calculate analyte concentrations. A batch of samples were considered acceptable if 75% of the calibration samples and 66% of the standard QC samples were within 20% of nominal. The linear range of the assay was defined by the calibration line ±20% i.e. the maximum reportable concentration was 120% of the highest concentration calibration sample that passed acceptance criteria. A metric plot of the IS response was reviewed to ensure the integrity of the study sample data.

In the case of `Fc1ccc(-c2cn3c(-c4ccc5[nH]ncc5c4F)c(C(F)(F)F)nc3cn2)cc1C(F)(F)C(F)(F)F` [LSHTM-3645], the fraction remaining at 1.5 h, 1 µM in data set [1] came out at 94%. Also, the “human single oral dose prediction” value in data set [2] is listed as 3.5 mg/kg. For the same molecule, the concentration at 24 h in data set [3] (oral 6.25 mg/kg, formulation corn oil) turned out to be 708 ng/mL; in data set [3] (setting [5]), 984 ng/mL. In addition, the “in vivo EC50 against juvenile worms” value in data set [4] is given as “below 6.25 mg/kg”. For the same molecule, the “clearing juvenile worm infections in vivo” value in data set [4] (mouse) was “extremely effective”. Besides, the Worms remaining is 1.8% in data set [4] (mouse, oral 6.25 mg/kg, formulation corn oil) and 0% in data set [4] (setting [6]). Further, in data set [4] (mouse, single oral dose 6.25 mg/kg), the worm reduction is recorded as 98%. Also, the “Cytotox TC50” value in the data set on HepG2 cells is 11,700 nM. The Clobs in “Mouse pharmacokinetics” (setting [7]) turned out to be 3.5 mL/min/kg. Further, the total exposure AUC(0-inf) in the data set “Mouse pharmacokinetics” (setting [8]) was 2400 ng·h/mL. In addition, the Vd in the data set “Mouse pharmacokinetics” (setting [8]) is 6.4 L/kg. In addition, in “Mouse pharmacokinetics” (setting [9]), the bioavailability was 100%. For the same molecule, the half-life in “Mouse pharmacokinetics” (setting [10]) is 23.4 h.
Consider `Fc1ccc(-c2cn3c(-c4ccc5[nH]ncc5c4F)c(C(F)(F)F)nc3cn2)cc1C(F)(F)F` [LSHTM-3642, 3-(4-fluoro-1H-indazol-5-yl)-6-(4-fluoro-3-(trifluoromethyl)phenyl)-2-(trifluoromethyl)imidazo[1,2-a]pyrazine], for which the fraction remaining at 1.5 h, 1 µM in data set [1] amounted to 90%. Moreover, the “human single oral dose prediction” value in data set [2] is given as 20 mg/kg. The concentration at 24 h in data set [3] (setting [5]) stood at 1320 ng/mL; in data set [3] (oral 25 mg/kg, formulation Aq) it was 1700 ng/mL. In addition, the Worms remaining in data set [4] (setting [6]) is 5%; in data set [4] (mouse, oral 25 mg/kg, formulation Aq), 1.8%. Moreover, in the data set on HepG2 cells, the “Cytotox TC50” value is on record as 16,600 nM. The Clobs in the data set “Mouse pharmacokinetics” (setting [7]) came out at 2.17 mL/min/kg. The “Plasma conc @ 24 h after oral dose” value in the data set “Mouse pharmacokinetics” ([…] oral, mixture of 5 compounds) is listed as 227 ng/mL. The AUC(0-inf) in “Mouse pharmacokinetics” (setting [8]) worked out at 5500 ng·h/mL. In addition, the Vd in “Mouse pharmacokinetics” (setting [8]) amounted to 8.7 L/kg. Moreover, the bioavailability in the data set “Mouse pharmacokinetics” (setting [9]) was 83%.
As to `Fc1c(-c2c(C(F)(F)F)nc3cnc(-c4cccc(C(F)(F)C(F)(F)F)c4)cn23)ccc2[nH]ncc12` [LSHTM-3608], the fraction remaining at 1.5 h, 1 µM in data set [1] is 88%. Besides, the “human single oral dose prediction” value in data set [2] is 2.5 mg/kg. In addition, the concentration at 24 h in data set [3] (setting [5]) amounted to 879 ng/mL. Also, in data set [4], the “in vivo EC50 against juvenile worms” value is “below 6.25 mg/kg”. Also, in data set [4] (mouse), the “clearing juvenile worm infections in vivo” value is reported as “extremely effective”. In addition, the Worms remaining in data set [4] (setting [6]) amounted to 0%. Besides, the worm reduction in data set [4] (mouse, single oral dose 12.5 mg/kg) amounted to 100%. The “Cytotox TC50” value in the data set with HepG2 cells is 10,900 nM. Moreover, the Clobs in the data set “Mouse pharmacokinetics” (setting [7]) amounted to 1.5 mL/min/kg. In “Mouse pharmacokinetics” (setting [8]), the total exposure AUC(0-inf) was determined as 6200 ng·h/mL and the Vd turned out to be 4 L/kg. In addition, the bioavailability in the data set “Mouse pharmacokinetics” (setting [9]) is 100%. The half-life in the data set “Mouse pharmacokinetics” (setting [10]) was 37.1 h.
`CC(C)c1cc(-c2cn3c(-c4ccc5[nH]ncc5c4F)c(C4CC4)nc3cn2)ccc1F` [LSHTM-3686]: the share remaining at 1.5 h, 1 µM in data set [1] was found to be 75%. Further, the “human single oral dose prediction” value in data set [2] was 1 mg/kg. In addition, the concentration at 24 h in data set [3] (oral 6.25x2 mg/kg (12 h apart), formulation corn oil) amounted to 37.2 ng/mL. The molecule also registered a Worms remaining in data set [4] (mouse, oral 6.25x2 mg/kg (12 h apart), formulation corn oil) of 25%. In addition, the worm burden reduction in data set [4] (mouse, juvenile infection, 6.25 mg/kg given twice 12 h apart) is reported as 75%. For the same molecule, the “Cytotox TC50” value in the data set with HepG2 cells is on record as 15,800 nM. Besides, the Clobs in the data set “Mouse pharmacokinetics” (setting [7]) was 15.7 mL/min/kg. For the same molecule, the half life in the data set “Mouse pharmacokinetics” (0.5 mg/kg iv, in a mixture of 5 compounds, sampled over 24 h, 0.5 mg/kg) is recorded as 6.2 h. In the data set “Mouse pharmacokinetics” (setting [8]), the AUC(0-inf) stood at 500 ng·h/mL and the Vd is 3.9 L/kg. For the same molecule, the bioavailability in the data set “Mouse pharmacokinetics” (setting [9]) is 100%. The half-life in “Mouse pharmacokinetics” (setting [10]) is 6 h.
In the case of `CC(C)c1nc2cnc(-c3ccc(F)c(C(F)(F)F)c3)cn2c1-c1ccc2[nH]ncc2c1F` [LSHTM-3604], the amount remaining at 0.5 h, 1 µM in data set [1] (pH 7.4, 30 min incubation, read-out: Mouse hepatocyte % remaining at 30 min) came to 89%. Besides, the fraction remaining at 1.5 h, 1 µM in data set [1] was determined as 80%. The “human single oral dose prediction” value in data set [2] is reported as 6 mg/kg. Further, the concentration at 24 h in data set [3] (oral 25 mg/kg, formulation corn oil) was found to be 223 ng/mL; in data set [3] (oral 50 mg/kg, formulation Aq), 505 ng/mL; in the data set “Mouse pharmacokinetics” (male, Swiss albino, plasma, oral, plasma level after 24 h scaled from […] dose, scaled to the efficacy dose (dose not given), read-out: plasma level after 24 h scaled from 2.5 mg/kg dose), 1430 ng/mL. In data set [4] (mouse, 21-day old infections, single oral dose, Aqueous formulation (Fig 8)), the “efficacy in vivo against juvenile worm infection” value was “effective”. The Worms remaining in data set [4] (mouse, oral 25 mg/kg, formulation corn oil) stood at 13%; in data set [4] (mouse, oral 50 mg/kg, formulation Aq) it was 12%. Moreover, in the data set on HepG2 cells, the “Cytotox TC50” value is listed as 12,000 nM. The Clobs in “Mouse pharmacokinetics” (setting [7]) was found to be 4.33 mL/min/kg. Moreover, in the data set “Mouse pharmacokinetics” (24 h, efficacy dose (dose not given)), the “scaled plasma level, fold above the calculated whole blood IC50” value is listed as 9.4 fold. The AUC(0-inf) in the data set “Mouse pharmacokinetics” (setting [8]) amounted to 1900 ng·h/mL. Moreover, the Vd in “Mouse pharmacokinetics” (setting [8]) stood at 3.4 L/kg. Moreover, the bioavailability in the data set “Mouse pharmacokinetics” (setting [9]) was 60%. Further, in the data set “Mouse pharmacokinetics” (setting [10]), the half-life is 10.5 h.
